According to patent publication US4161538A, “Substituted phenylacetic acid derivatives and process for the preparation thereof” (Sankyo Company Limited, priority 1977, dated 1979):
Structures can show the parent of a compound that is named as a salt.

Tests used:
thermally induced pain = assay: Analgesic activity, thermally induced pain method; format: in vivo, Wistar strain rat; details: for inhibition in vivo at 19 mg/kg: Rattus norvegicus, po, 19 mg/kg P.O.; for Inhibition(%) Analgesic 19 mg/kg (P.O.): rat
Excerpt: [Y. Iizuka, K. Tanaka; Folia Pharmacol. Jap., 70, 697(1974)]

carrageenin edema = assay: Anti-inflammatory activity, carrageenin edema method; format: in vivo, Wistar strain rat; details: for inhibition in vivo at 25 mg/kg: Rattus norvegicus, po
Excerpt: The carrageenin edema method was employed using Wistar strain rat. [C. A. Winter, E. A. Risley, G. W. Nuss; J. Pharmacol. Exp. Therap., 141, 369(1963)]

Row | SMILES | inhibition in vivo at 19 mg/kg (thermally induced pain) [%] | inhibition in vivo at 25 mg/kg (carrageenin edema; 25 mg/kg P.O.) [%] | Inhibition(%) Anti-inflammatory (100 mg/kg) (carrageenin edema; rat, 100 mg/kg (P.O.), reference medicine) [%] | Inhibition(%) Analgesic 19 mg/kg (P.O.) (thermally induced pain) [%] | Inhibition(%) Anti-inflammatory 25 mg/kg (P.O.) (carrageenin edema; rat, 25 mg/kg P.O.) [%]
1 | CC(C(=O)O)c1ccc(CC2CCCCC2=O)cc1 (stereo not shown) [2-[4-(2-Oxocyclohexan-1-ylmethyl)phenyl]-propionic Acid] | 63.3 | 79.9 |  |  | 
2 | CCCCC1C(=O)N(c2ccccc2)N(c2ccccc2)C1=O [Phenylbutazone, reference compound] | 37 | 30.6 | 57.4 |  | 
3 | CC(C(=O)O)c1ccc(CC2CCCC2=NO)cc1 (stereo not shown) [2-[4-(2-Hydroxyiminocyclopentan-1-ylmethyl)phenyl]propionic Acid] | 70 | 67.4 |  |  | 
4 | CC(C(=O)O)c1ccc(CC2CCCC2=O)cc1 (stereo not shown) [2-(4-(2-Oxocyclopentan-1-ylmethyl)phenyl)-propionic acid] [2-[4-(2-Oxocyclopentan-1-ylmethyl)phenyl]-propionic Acid] |  |  |  | 95.8 | 
5 | CC(C(=O)O)c1ccc(CC2CCCC2=O)cc1 [2-(4-(2-Oxocyclopentan-1-ylmethyl)phenyl)-propionic acid I-a] [2-[4-(2-Oxocyclopentan-1-ylmethyl)phenyl]-propionic Acid L-Arginine Salt] |  |  |  | 66.7 | 69.8
6 | O=C(O)Cc1ccc(CC2CCCC2=NO)cc1 (single isomer, unassigned) [4-(2-Hydroxyiminocyclopentan-1-ylmethyl)phenylacetic Acid] | 54.8 | 49.7 |  |  | 
7 | CC(C(=O)O)c1ccc(CC2CCCCC2=NO)cc1 (stereo not shown) [2-[4-(2-Hydroxyiminocyclohexan-1-ylmethyl)phenyl]propionic Acid] | 53.1 | 78.2 |  |  | 
8 | O=C(O)Cc1ccc(CC2CCCC2=O)cc1 (stereo not shown) [4-(2-Oxocyclopentan-1-ylmethyl)phenylacetic Acid] | 42.5 | 65.6 |  |  | 
9 | CC(C(=O)O)c1ccc(CC2CCCC2=O)cc1 (stereo not shown) [2-[4-(2-Oxocyclopentan-1-ylmethyl)phenyl]-propionic Acid] |  | 51.4 |  |  | 
10 | O=C(O)Cc1ccc(CC2CCCCC2=O)cc1 (stereo not shown) [4-(2-Oxocyclohexan-1-ylmethyl)phenylacetic Acid] | 45.1 | 35.1 |  |  | 
